According to the NIST ThermoML archive (doi:10.1021/je200868y):
± gives the expanded uncertainty stated by the source.

Conditions: Liquid; for mass density: 298.15 K, 101.33 kPa, Vibrating tube method

Row | Compound | mass density [kg/m3] | vapor or sublimation pressure (379.81 K) [kPa] | vapor or sublimation pressure (388.96 K) [kPa] | vapor or sublimation pressure (396.45 K) [kPa] | vapor or sublimation pressure (402.82 K) [kPa] | vapor or sublimation pressure (408.4 K) [kPa] | vapor or sublimation pressure (411.48 K) [kPa] | vapor or sublimation pressure (329.69 K) [kPa] | vapor or sublimation pressure (336.07 K) [kPa] | vapor or sublimation pressure (341.23 K) [kPa] | vapor or sublimation pressure (345.6 K) [kPa] | vapor or sublimation pressure (349.39 K) [kPa] | vapor or sublimation pressure (351.44 K) [kPa] | vapor or sublimation pressure (408.31 K) [kPa] | vapor or sublimation pressure (417.74 K) [kPa] | vapor or sublimation pressure (425.39 K) [kPa] | vapor or sublimation pressure (431.86 K) [kPa] | vapor or sublimation pressure (437.53 K) [kPa] | vapor or sublimation pressure (440.57 K) [kPa]
1 | Cc1ccc(C)cc1 [1,4-dimethylbenzene] | 856.68 ± 0.12 | 40 ± 1.5 | 53.33 ± 2 | 66.66 ± 2.4 | 79.99 ± 2.8 | 93.32 ± 3.2 | 101.3 ± 3.4 | – | – | – | – | – | – | – | – | – | – | – | –
2 | CCO [ethanol] | 785.18 ± 0.15 | – | – | – | – | – | – | 40 ± 1.5 | 53.33 ± 2 | 66.66 ± 2.4 | 79.99 ± 2.8 | 93.32 ± 3.2 | 101.3 ± 3.4 | – | – | – | – | – | –
3 | CCCCCC(=O)OCC [ethyl hexanoate] | 865.59 ± 0.11 | – | – | – | – | – | – | – | – | – | – | – | – | 40 ± 1.5 | 53.33 ± 2 | 66.66 ± 2.4 | 79.99 ± 2.8 | 93.32 ± 3.2 | 101.3 ± 3.4
